Measured values as given in patent US12616704B2, “Cannabichromene formulation for pain management” (Zyus Life Sciences Inc., priority 2020, dated 2026).
pKi: −log10 of the molar value.

How the values were obtained:
[1] = biological target: TRPA1 (Transient Receptor potential A1) channels (Homo sapiens, UniProt O75762); conditions: among phytocannabinoids; cited from earlier work
CB1 receptors = CB1 receptors (Homo sapiens, UniProt P21554); conditions: cited from earlier work
[2] = Welfare observations in OIPN study; type: in vivo, C57BL/6J mice; conditions: CBC 20 mg/kg p.o., OIPN mice
From the text: Seven mice were disqualified from further study due to showing too mild cool allodynia.

[3] = Body weight in OIPN study; type: in vivo, C57BL/6J mice; conditions: OIPN mice; CBC 20 mg/kg p.o., Duloxetine 25 mg/kg i.p.
Description: Body Weight—Animal body weights were measured before assigning the treatment groups and then on each day of the study. The last body weight measurement was performed upon endpoint sampling. Terminal body weights were not collected from animals found dead or euthanized moribund.

[4] = test system: SNL-induced mechanical hypersensitivity; assay: Tactile allodynia test (electronic von Frey, evF) in spinal nerve ligation (SNL) model; type: in vivo, Sprague-Dawley rats; conditions: for evF, Vehicle vs. treatment: Summary / evF, Vehicle vs. treatment: Predicted (LS) mean diff.: between groups; for evF, Vehicle vs. treatment: Predicted (LS) mean diff. / evF, Pre-Dosing vs. 2 h-PD: Predicted (LS) mean diff. / evF, Pre-Dosing vs. 4 h-PD: Predicted (LS) mean diff. / evF, Pre-Dosing vs. 8 h-PD: Predicted (LS) mean diff. / evF, Pre-Dosing vs. 24 h-PD: Predicted (LS) mean diff.: PWT % from baseline; for Post-SNL vs. BL: Predicted (LS) mean diff.: evF PWT % from baseline; for Post-SNL vs. BL: Predicted (LS) mean diff. / Post-SNL vs. BL: Significant? / Post-SNL vs. BL: Summary: baseline vs. D7 (pre-dosing, before treatment); for Post-SNL vs. BL: Predicted (LS) mean diff. / Post-SNL vs. BL: Significant? / Post-SNL vs. BL: Summary / evF, Pre-Dosing vs. 2 h-PD: Summary / evF, Pre-Dosing vs. 4 h-PD: Summary / evF, Pre-Dosing vs. 8 h-PD: Summary / evF, Pre-Dosing vs. 24 h-PD: Summary / evF, Pre-Dosing vs. 2 h-PD: Predicted (LS) mean diff. / evF, Pre-Dosing vs. 4 h-PD: Predicted (LS) mean diff. / evF, Pre-Dosing vs. 8 h-PD: Predicted (LS) mean diff. / evF, Pre-Dosing vs. 24 h-PD: Predicted (LS) mean diff.: within group; for duration of prolonged anti-nociceptive effect after one-time administration / Post-SNL vs. BL: Significant? / Post-SNL vs. BL: Summary: evF; for AUC of % PWT curve, Vehicle vs. treatment: Mean Diff. / AUC of % PWT curve, Vehicle vs. treatment: Summary: pre-dosing to 24 h PD; for evF, Pre-Dosing vs. 24 h-PD: Summary / evF, Pre-Dosing vs. 24 h-PD: Predicted (LS) mean diff.: pregabalin 50 mg/kg i.p. re-dosed 2 h before evF on D9
Description: The treatment groups received the following test article mixtures: • Group 1: treated with vehicle (0.9% saline) • Group 2: treated with Pregabalin (50 mg/kg) • Group 3: treated with CBC (10 mg/kg)
Administration of Treatments. CBC (cannabichromene) formulation, the vehicle, or pregabalin treatment was administered according to Table 1 on study day 8 to all study animals, and on study day 10 to 6 animals per group. The dousing route of CBC or the vehicle were intragastric (p.o.), while pregabalin was administered intraperitoneally (i.p.). In addition to D8, pregabalin was administered on D9, at 2 h prior to the evf test. All animals of the pregabalin group were euthanized on D9, following the last test trial. The CBC was dissolved and diluted to one of the following vehicles:
Spinal Nerve Ligation (SNL) Surgery. The animals were enrolled to SNL surgery in daily cohorts of n=6, according to the number of animals operated per day). The rat first received an intraperitoneal dose of 0.03 mg/kg buprenorphine (Temgesic), at minimum of 30 minutes prior to the surgery, to alleviate the operative and postoperative pain unrelated to neuropathy. The rats were anesthetized with isoflurane in 70% N2O and 30% O2; with a flow rate of 300 ml/min. Anesthesia was inducted with 5% isoflurane for 2-3 min, and maintained through a snout mask with 1-2% isoflurane thereafter.
A dorsal incision extending from L3 to S2 was performed to the medial dorsal area of the rat using aseptic technique. The L6/S1 posterior intrarticular process was exposed using a combination of blunt and sharp dissection. The L6 transverse process in the spinal column was visualized and partially removed without manipulating the nerves, followed by exposing the L4 and L5 spinal nerves distal to their emergence from the intervertebral foramina. Tight double knots of 6-0 silk suture were placed on both spinal nerves.
Tactile Allodynia Test (evF). In this study, mechanical sensitivity to punctate stimulus was defined at six time points, by using electronic von Frey (evF) device with the attached analysis software (Somedic®, Sweden).
Rats displaying inborn oversensitivity were disqualified from the study. Oversensitivity was defined as baseline paw withdrawal threshold (PWT) of <20 g with 1 mm probe. Following the baseline evF testing, the rats were weighed and numbered prior to surgery.
To perform the evF test, the rats were placed in individual von Frey test chambers standing on an elevated steel mesh. The rats were allowed to adapt in the chambers, and the test emerged after they had settled down after investigating the chamber and grooming (approximately 15 min).
Mechanical allodynia was assessed by evF test prior to SNL surgery (baseline), to define the individual “innate” sensitivity levels of the study animals. Next, the evF was performed on D7 post-SNL, to assess the hypersensitivity evoked by the SNL surgery, and to evaluate pre-dosing sensitivity values. Next day (D8), the animals were tested by evF at 2 h, at 4 h, and at 8 h post-dosing (PD). The last evF time point occurred at 24 h PD, i.e. on D9. The listed post-dosing times were used for all groups except group 2, which on D9 received pregabalin at 2 h prior to evF.
The evF apparatus was used according to the manufacturer's instructions. Briefly, upon each measurement, the force was applied to mid-plantar surface of the hind paw in a linearly increasing rate. The used evF probe diameter was 1 mm, and the chosen ascent rate of force 10 g/s. Linearity of force application was monitored real-time. The applied force (in grams) causing paw withdrawal was recorded by the
Altogether 5 repeated measurements were applied to each hind paw at each time-point, leaving a minimum of 3-min interval between the repeats. Three values closest to the median were then averaged to produce result value for each paw at any given time point. Both ipsi- and contralateral paws were tested on each test day.
Statistical Analysis. […]

CB2 receptors = CB2 receptors (Homo sapiens, UniProt P34972); conditions: read-out: affinity (Ki) for CB2 receptors; cited from earlier work
CB2 receptors, sequence (P34972 whole entry): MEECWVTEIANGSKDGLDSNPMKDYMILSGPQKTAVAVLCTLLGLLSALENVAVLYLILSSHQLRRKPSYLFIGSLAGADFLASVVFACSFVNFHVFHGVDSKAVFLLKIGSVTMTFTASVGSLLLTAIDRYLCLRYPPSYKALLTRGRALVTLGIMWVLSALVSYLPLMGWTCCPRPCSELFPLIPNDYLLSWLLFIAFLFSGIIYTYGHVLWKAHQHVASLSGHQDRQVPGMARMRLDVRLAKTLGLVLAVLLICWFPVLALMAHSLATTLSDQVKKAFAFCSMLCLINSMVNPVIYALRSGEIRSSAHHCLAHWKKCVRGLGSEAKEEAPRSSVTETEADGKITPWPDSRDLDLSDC

[5] = 2 h-PD, CBC 10 mg/kg p.o., pregabalin 50 mg/kg i.p.
[6] = 4 h-PD, CBC 10 mg/kg p.o., pregabalin 50 mg/kg i.p.
[7] = 8 h-PD, CBC 10 mg/kg p.o., pregabalin 50 mg/kg i.p.
[8] = 24 h-PD (D9), CBC 10 mg/kg p.o., pregabalin 50 mg/kg i.p. re-dosed 2 h before evF
[9] = CBC 10 mg/kg p.o., pregabalin 50 mg/kg i.p.

CB1 receptors, sequence (P21554 whole entry): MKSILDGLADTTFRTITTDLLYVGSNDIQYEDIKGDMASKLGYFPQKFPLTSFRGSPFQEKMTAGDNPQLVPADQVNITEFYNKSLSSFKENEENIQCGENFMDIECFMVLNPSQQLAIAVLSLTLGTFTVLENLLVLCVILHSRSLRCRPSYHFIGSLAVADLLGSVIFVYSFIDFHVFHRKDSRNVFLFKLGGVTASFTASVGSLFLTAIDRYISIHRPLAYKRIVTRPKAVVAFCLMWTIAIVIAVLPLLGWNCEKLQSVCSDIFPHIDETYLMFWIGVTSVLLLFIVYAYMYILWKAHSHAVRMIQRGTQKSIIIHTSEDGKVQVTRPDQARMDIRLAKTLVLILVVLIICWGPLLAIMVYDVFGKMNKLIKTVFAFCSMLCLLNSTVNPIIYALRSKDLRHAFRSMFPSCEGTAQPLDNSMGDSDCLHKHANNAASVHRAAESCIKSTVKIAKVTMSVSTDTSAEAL
TRPA1 (Transient Receptor potential A1) channels, sequence (O75762 whole entry): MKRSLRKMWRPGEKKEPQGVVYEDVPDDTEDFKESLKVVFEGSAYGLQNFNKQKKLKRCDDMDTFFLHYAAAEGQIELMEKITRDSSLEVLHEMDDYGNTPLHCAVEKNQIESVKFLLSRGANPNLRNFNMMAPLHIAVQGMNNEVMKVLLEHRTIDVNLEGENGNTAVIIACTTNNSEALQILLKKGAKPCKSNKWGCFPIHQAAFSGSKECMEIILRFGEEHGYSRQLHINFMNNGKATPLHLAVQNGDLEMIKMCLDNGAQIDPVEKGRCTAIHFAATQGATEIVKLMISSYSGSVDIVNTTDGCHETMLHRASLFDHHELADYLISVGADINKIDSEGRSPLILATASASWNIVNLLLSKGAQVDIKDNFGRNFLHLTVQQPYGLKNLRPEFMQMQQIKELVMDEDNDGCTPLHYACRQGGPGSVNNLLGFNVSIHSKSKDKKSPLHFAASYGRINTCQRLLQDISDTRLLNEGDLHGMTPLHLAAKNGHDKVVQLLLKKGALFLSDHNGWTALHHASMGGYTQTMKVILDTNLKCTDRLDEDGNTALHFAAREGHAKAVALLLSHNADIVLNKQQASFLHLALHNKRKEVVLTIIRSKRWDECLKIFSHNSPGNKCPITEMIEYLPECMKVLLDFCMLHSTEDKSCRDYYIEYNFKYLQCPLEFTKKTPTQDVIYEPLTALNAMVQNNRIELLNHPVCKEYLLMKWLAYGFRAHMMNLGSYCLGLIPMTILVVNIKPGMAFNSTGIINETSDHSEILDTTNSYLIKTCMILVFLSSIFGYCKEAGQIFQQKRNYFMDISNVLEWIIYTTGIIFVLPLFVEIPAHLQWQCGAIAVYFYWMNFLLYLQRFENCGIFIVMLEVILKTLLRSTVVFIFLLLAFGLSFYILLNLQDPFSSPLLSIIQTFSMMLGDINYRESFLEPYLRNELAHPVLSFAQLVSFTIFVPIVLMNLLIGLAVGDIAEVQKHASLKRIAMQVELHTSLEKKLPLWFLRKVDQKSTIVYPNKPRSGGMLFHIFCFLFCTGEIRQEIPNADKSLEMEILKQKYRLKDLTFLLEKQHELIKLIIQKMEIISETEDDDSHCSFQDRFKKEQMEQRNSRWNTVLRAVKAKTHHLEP

Row | SMILES | evF, Vehicle vs. treatment: Summary [4, 5] | evF, Vehicle vs. treatment: Predicted (LS) mean diff. [4, 5] | evF, Vehicle vs. treatment: Summary [4, 6] | evF, Vehicle vs. treatment: Predicted (LS) mean diff. [4, 6] | evF, Vehicle vs. treatment: Summary [4, 7] | evF, Vehicle vs. treatment: Predicted (LS) mean diff. [4, 7] | evF, Vehicle vs. treatment: Summary [4, 8] | evF, Vehicle vs. treatment: Predicted (LS) mean diff. [4, 8] | evF, Vehicle vs. treatment: Summary ([4]; Pre-Dosing (D7)) | evF, Vehicle vs. treatment: Predicted (LS) mean diff. ([4]; Pre-Dosing (D7)) | Post-SNL vs. BL: Predicted (LS) mean diff. [4] | duration of prolonged anti-nociceptive effect after one-time administration [4, 9] | Post-SNL vs. BL: Significant? [4] | Post-SNL vs. BL: Summary [4] | AUC of % PWT curve, Vehicle vs. treatment: Mean Diff. [4, 9] | AUC of % PWT curve, Vehicle vs. treatment: Summary [4, 9] | evF, Pre-Dosing vs. 2 h-PD: Summary [4, 9] | evF, Pre-Dosing vs. 4 h-PD: Summary [4, 9] | evF, Pre-Dosing vs. 8 h-PD: Summary [4, 9] | evF, Pre-Dosing vs. 24 h-PD: Summary ([4]; CBC 10 mg/kg p.o.) | other results
1 | CCCCCc1cc(O)c2c(c1)OC(C)(CCC=C(C)C)C=C2 (stereo not drawn) [CBC, cannabichromene] | ns | −15.45 | ns | −10.25 | ns | −17.12 | ns | −14.84 | ns | −0.627 | 45.98 | up to 8 hours | Yes | **** (p<0.0001, extremely/highly significant) | −50.00 | ** (p<0.01, very significant) | *** (p<0.001, extremely/highly significant) | * (p<0.05, significant) | * (p<0.05, significant) | ns | agonist potency at TRPA1 channels [1]: most potent agonist of all the phytocannabinoids; binds to CB1 receptors only at concentrations higher than (CB1 receptors): higher than 1 micromolar; adverse effects [2]: no hyper-reactivity or psychoactive adverse effects; body weight development from D22 onwards [3]: slower increase in body weight; effect on SNL-induced hypersensitivity (evF), between-group ([4]; CBC 10 mg/kg p.o.): appears to evoke a trend of reversing hypersensitivity; evF, Pre-Dosing vs. 2 h-PD: Predicted (LS) mean diff. [4, 9]: −29.36; evF, Pre-Dosing vs. 4 h-PD: Predicted (LS) mean diff. [4, 9]: −18.71; evF, Pre-Dosing vs. 8 h-PD: Predicted (LS) mean diff. [4, 9]: −19.64; evF, Pre-Dosing vs. 24 h-PD: Predicted (LS) mean diff. ([4]; CBC 10 mg/kg p.o.): −15.44; pKi (CB2 receptors): ~7.00
2 | CC(C)C[C@H](CN)CC(=O)O [Pregabalin, pregabalin, reference compound] | ns | −12.08 | ns | −0.8299 | ns | −12.91 | ns | −7.967 | ns | −0.02247 | 46.58 | not observed | Yes | **** (p<0.0001, extremely/highly significant) | −29.80 | • (p<0.1, an established trend towards significance) | *** (p<0.001, extremely/highly significant) | ns | ns | ns | evF, Pre-Dosing vs. 2 h-PD: Predicted (LS) mean diff. [4, 9]: −26.59; evF, Pre-Dosing vs. 4 h-PD: Predicted (LS) mean diff. [4, 9]: −9.891; evF, Pre-Dosing vs. 8 h-PD: Predicted (LS) mean diff. [4, 9]: −16.03; evF, Pre-Dosing vs. 24 h-PD: Predicted (LS) mean diff. ([4]; CBC 10 mg/kg p.o.): −9.176
